Reference: US11345700B2, “Methods of preparing inhibitors of influenza viruses replication” (priority 2013, dated 2022)
Like-named read-outs stand apart in the source and are kept apart here. Marks after values point to notes of the source that are not given here.

Tests used:
[1] = 2 weeks
[2] = system: Influenza A/California/04/2009 (pndH1N1) virus; assay type: in vivo, BALB/c mice; conditions: mouse, in vivo
[3] = system: Influenza A/Victoria/3/75 (H3N2) virus; assay type: in vivo, BALB/c mice; conditions: mouse, in vivo
[4] = system: Influenza A/Vietnam/1203/2004 (H5N1) virus; assay type: in vivo, BALB/c mice; conditions: 10 mg/kg p.o. twice a day for 10 days; Treatment (+48 h)
influenza A virus = experiment: Mouse influenza A model: prophylactic dose response and delayed treatment, survival and body weight loss; assay type: in vivo, mice; conditions: 10 mg/kg BID
Description: The prophylactic dose response of Compound (1) was investigated in the mouse influenza A model. […] All of the mice that received vehicle alone succumbed to the infection by study day 9 and had lost, on average, ˜32% of their body weight (BW).
All vehicle controls succumbed to disease by study days 8 or 9.

influenza A = experiment: Mouse model of influenza A: lung viral titers; assay type: in vivo, mice; conditions: Study 1, 10 mg/kg BID from 24 h post infection for 5 days
A/Puerto Rico/8/34 [5] = system: A/Puerto Rico/8/34
influenza A/PR/8/34 = experiment: In vivo combination of Compound (1) with zanamivir, influenza A challenge in mice; conditions: no Compound (1)
Description: Efficiency quotient, a composite measure of survival, bodyweight loss and lung function (% survival/(% body weight loss at Day 8)*(Penh at Day 6)) is summarized in Table 19B.

A/Puerto Rico/8/34 [6] = assay type: cell-based, influenza A virus
[7] = in Nitromethane, ambient temperature
[8] = treatment start +24 h relative to infection
[9] = treatment start +48 h relative to infection
[10] = treatment start +72 h relative to infection
[11] = treatment start −2 h relative to infection
[12] = Zanamivir 0.3 mg/kg IN x 1, 24 h prior to infection
[13] = Zanamivir 1 mg/kg IN x 1, 24 h prior to infection
[14] = Zanamivir 3 mg/kg IN x 1, 24 h prior to infection

Compound: Cl.Cl.O.O=C(O)[C@H]1C2CCC(CC2)[C@@H]1Nc1nc(-c2c[nH]c3ncc(F)cc23)ncc1F.O=C(O)[C@H]1C2CCC(CC2)[C@@H]1Nc1nc(-c2c[nH]c3ncc(F)cc23)ncc1F [Form A HCl salt of Compound (1)]
- Sol. [1]: 0.6 mg/mL
- Sol. [1, 7]: <0.1 mg/mL

Compound: O=C(O)[C@H]1C2CCC(CC2)[C@@H]1Nc1nc(-c2c[nH]c3ncc(F)cc23)ncc1F [Form A free base Compound (1)]
- Sol. [1]: <0.1 mg/mL
- Sol. [1, 7]: 0.3 mg/mL

Compound: CCOC(=O)C1=C[C@@H](OC(CC)CC)[C@H](NC(C)=O)[C@@H](N)C1 [Oseltamivir, reference compound]
- Mean Lung Parameters (Day 6): Score (hemorrhage score 0-4) [2]: 1.0
- Mean Lung Parameters (Day 6): Virus Titer [2]: 7.9 Log10 CCID50/g
- Mean Lung Parameters (Day 6): Weight [2]: 178 mg
- Survivors/Total [2]: 10/10***
- MDD ± SD (mean day of death of mice that died on or before day 21) [3]: 7.0
- Mean Lung Parameters (Day 6): Score (hemorrhage score 0-4) [3]: 1.7
- Mean Lung Parameters (Day 6): Virus Titer [3]: 7.0 Log10 CCID50/g
- Mean Lung Parameters (Day 6): Weight [3]: 218 mg
- Survivors/Total [3]: 9/10***
- MDD ± SD (mean day of death of mice that died on or before day 21) [4]: 9.5 ± 1.2
- Mean Lung Parameters (Day 6): Virus Titer [4]: 5.22 ± 0.38 Log10 CCID50/g
- Survivors/Total [4]: 0/10
- survival (influenza A virus; same experiment (prophylactic)): All of the oseltamivir-administered mice survived
- protection from death (influenza A virus; only when dosing was initiated 24 h or less post infection): complete protection
- Percent Body Weight Loss on Study Day 8 (influenza A virus; [8]): −28.9%
- Percent Survival (influenza A virus; [8]): 100%
- Percent Body Weight Loss on Study Day 8 (influenza A virus; [9]): −31.1%
- Percent Survival (influenza A virus; [9]): 80%
- Percent Body Weight Loss on Study Day 8 (influenza A virus; [10]): −31.3%
- Percent Survival (influenza A virus; [10]): 0%
- Percent Body Weight Loss on Study Day 8 (influenza A virus; [11]): −19.1%
- Percent Survival (influenza A virus; [11]): 100%
- Log10 Reduction vs. Vehicle (influenza A; study day 6): −0.15
- Lung Viral Titer (influenza A; titers on study day 6): 6.05 Log10 TCID50
- C.I. (combination index) values at the 50% effect level (A/Puerto Rico/8/34 [5]): 0.58

Compound: CC(=O)N[C@H]1[C@H]([C@H](O)[C@H](O)CO)OC(C(=O)O)=C[C@@H]1N=C(N)N [Zanamivir, reference compound]
- Efficiency Quotient (% survival/(% body weight loss at Day 8)*(Penh at Day 6)) (influenza A/PR/8/34; [12]): 0.44
- Survival Rate (influenza A/PR/8/34; [12]): 37.5
- Efficiency Quotient (% survival/(% body weight loss at Day 8)*(Penh at Day 6)) (influenza A/PR/8/34; [13]): 0.73
- Survival Rate (influenza A/PR/8/34; [13]): 50
- Efficiency Quotient (% survival/(% body weight loss at Day 8)*(Penh at Day 6)) (influenza A/PR/8/34; [14]): 0.73
- Survival Rate (influenza A/PR/8/34; [14]): 62.5
- Synergy Volume, 95% Confidence (A/Puerto Rico/8/34 [6]): 268
- C.I. (combination index) values at the 50% effect level (A/Puerto Rico/8/34 [5]): 0.64

Compound: NC(=O)c1nc(F)c[nH]c1=O [favipiravir]
- Synergy Volume, 95% Confidence (A/Puerto Rico/8/34 [6]): 317
- C.I. (combination index) values at the 50% effect level (A/Puerto Rico/8/34 [5]): 0.89

Compound: CCC(CC)O[C@@H]1C=C(C(=O)O)C[C@H](N)[C@H]1NC(C)=O [oseltamivir carboxylate]
- Synergy Volume, 95% Confidence (A/Puerto Rico/8/34 [6]): 312
